Assay results: patent US20240180793A1, “CORE STICK-TYPE OIL DISPERSION SOLID COSMETIC COMPOSITION HAVING IMPROVED SPREADABILITY” (COSMAX, INC., priority 2021, published 2024)
In brackets after ≈: the same amount, converted by molar mass.

Biological target: mushroom tyrosinase
Assay: Mushroom tyrosinase inhibition assay (whitening effect)
Type: biochemical
Conditions: mushroom tyrosinase 1000 units/mL, L-tyrosine, pH 6.5, 25° C. for 30 minutes, absorbance at 490 nm
Description: Then, the absorbance was recorded at 490 nm by a microplate reader to determine the amount of dopachrome generated. […] The expression of the percentage of tyrosinase activity inhibition is as follows.
Tyrosinase activity inhibitory effect (%)=(1−(A−B)/C)×100 [Equation] • A: Absorbance of sample • B: Absorbance of color control • C: Absorbance of control

IC50 (tyrosinase activity inhibition): 630.1 µg/mL (≈ 2310 µM)
Structure (SMILES): OC[C@H]1O[C@@H](Oc2ccc(O)cc2)[C@H](O)[C@@H](O)[C@@H]1O [Arbutin]
